In the supplement of paper PMC10307832:

How the values were obtained:
Assay in all cases: relative viability (nuclei count vs DMSO), 5 days (fraction); higher = more cells survive
H3255 = system: H3255
How it was run: (§1)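 Relative viability is defined as nuclei in treated wells over nuclei in vehicle wells. Duplicate plates were run and medians reported. Lung cancer cell lines in 1536-well plates were dosed by pin tool one day after seeding, with one drug or with a fixed anchor-drug dose plus five library-drug doses (not always all listed) in √10 steps, and nuclei were counted after 5 days.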

NCI-H727 = system: NCI-H727
How it was run: as §1

LC-2-ad = system: LC-2-ad
How it was run: as §1

PC-3 [JPC-3] = system: PC-3 [JPC-3]
How it was run: as §1

NCI-H661 = system: NCI-H661
How it was run: as §1

NCI-H460 = system: NCI-H460
How it was run: as §1

NCI-H1650 = system: NCI-H1650
How it was run: as §1

NCI-H2023 = system: NCI-H2023
How it was run: as §1

NCI-H596 = system: NCI-H596
How it was run: as §1

LCLC-97TM1 = system: LCLC-97TM1
How it was run: as §1

ABC-1 = system: ABC-1
How it was run: as §1

CAL-12T = system: CAL-12T
How it was run: as §1

BEN = system: BEN
How it was run: as §1

NCI-H441 = system: NCI-H441
How it was run: as §1

NCI-H2087 = system: NCI-H2087
How it was run: as §1

201T = system: 201T
How it was run: as §1

NCI-H520 = system: NCI-H520
How it was run: as §1

NCI-H1651 = system: NCI-H1651
How it was run: as §1

NCI-H1915 = system: NCI-H1915
How it was run: as §1

NCI-H1944 = system: NCI-H1944
How it was run: as §1

NCI-H650 = system: NCI-H650
How it was run: as §1

A-427 = system: A-427
How it was run: as §1

SMILES: O=c1cc(-c2cccc3c2Sc2ccccc2S3)oc(N2CCOCC2)c1 + COc1cccc2cc(-c3nc([C@H]4CC[C@H](C(=O)O)CC4)n4ncnc(N)c34)[nH]c12 [OSI-027] (partner 0.5 µM)
- relative viability (H3255; first compound 0.08 µM): 0.61
- relative viability (H3255; first compound 0.253 µM): 0.604
- relative viability (H3255; first compound 0.8 µM): 0.541
- relative viability (H3255; first compound 2.53 µM): 0.569
- relative viability (H3255; first compound 8 µM): 0.671
- relative viability (NCI-H727; first compound 0.08 µM): 0.631
- relative viability (NCI-H727; first compound 0.253 µM): 0.673
- relative viability (NCI-H727; first compound 0.8 µM): 0.586
- relative viability (NCI-H727; first compound 2.53 µM): 0.563
- relative viability (NCI-H727; first compound 8 µM): 0.64
- relative viability (LC-2-ad; first compound 0.08 µM): 0.814
- relative viability (LC-2-ad; first compound 0.253 µM): 0.934
- relative viability (LC-2-ad; first compound 0.8 µM): 0.792
- relative viability (LC-2-ad; first compound 2.53 µM): 0.741
- relative viability (LC-2-ad; first compound 8 µM): 0.727
- relative viability (PC-3 [JPC-3]; first compound 0.08 µM): 0.763
- relative viability (PC-3 [JPC-3]; first compound 0.253 µM): 0.8
- relative viability (PC-3 [JPC-3]; first compound 0.8 µM): 0.783
- relative viability (PC-3 [JPC-3]; first compound 2.53 µM): 0.698
- relative viability (PC-3 [JPC-3]; first compound 8 µM): 0.787
- relative viability (NCI-H661; first compound 0.08 µM): 0.736
- relative viability (NCI-H661; first compound 0.253 µM): 0.739
- relative viability (NCI-H661; first compound 0.8 µM): 0.71
- relative viability (NCI-H661; first compound 2.53 µM): 0.642
- relative viability (NCI-H661; first compound 8 µM): 0.647
- relative viability (NCI-H460; first compound 0.08 µM): 0.605
- relative viability (NCI-H460; first compound 0.253 µM): 0.994
- relative viability (NCI-H460; first compound 0.8 µM): 0.643
- relative viability (NCI-H460; first compound 2.53 µM): 0.568
- relative viability (NCI-H460; first compound 8 µM): 0.527
- relative viability (NCI-H1650; first compound 0.08 µM): 0.615
- relative viability (NCI-H1650; first compound 0.253 µM): 0.593
- relative viability (NCI-H1650; first compound 0.8 µM): 0.506
- relative viability (NCI-H1650; first compound 2.53 µM): 0.521
- relative viability (NCI-H1650; first compound 8 µM): 0.561
- relative viability (NCI-H2023; first compound 0.08 µM): 0.353
- relative viability (NCI-H2023; first compound 0.253 µM): 0.379
- relative viability (NCI-H2023; first compound 0.8 µM): 0.396
- relative viability (NCI-H2023; first compound 2.53 µM): 0.315
- relative viability (NCI-H2023; first compound 8 µM): 0.256
- relative viability (NCI-H596; first compound 0.08 µM): 0.69
- relative viability (NCI-H596; first compound 0.253 µM): 0.803
- relative viability (NCI-H596; first compound 0.8 µM): 0.695
- relative viability (NCI-H596; first compound 2.53 µM): 0.683
- relative viability (NCI-H596; first compound 8 µM): 0.662
- relative viability (LCLC-97TM1; first compound 0.08 µM): 0.48
- relative viability (LCLC-97TM1; first compound 0.253 µM): 0.407
- relative viability (LCLC-97TM1; first compound 0.8 µM): 0.539
- relative viability (LCLC-97TM1; first compound 2.53 µM): 0.519
- relative viability (LCLC-97TM1; first compound 8 µM): 0.575
- relative viability (ABC-1; first compound 0.08 µM): 0.501
- relative viability (ABC-1; first compound 0.253 µM): 0.478
- relative viability (ABC-1; first compound 0.8 µM): 0.609
- relative viability (ABC-1; first compound 2.53 µM): 0.452
- relative viability (ABC-1; first compound 8 µM): 0.445
- relative viability (CAL-12T; first compound 0.08 µM): 0.671
- relative viability (CAL-12T; first compound 0.253 µM): 0.709
- relative viability (CAL-12T; first compound 0.8 µM): 0.407
- relative viability (CAL-12T; first compound 2.53 µM): 0.57
- relative viability (CAL-12T; first compound 8 µM): 0.297
- relative viability (BEN; first compound 0.08 µM): 0.279
- relative viability (BEN; first compound 0.253 µM): 0.268
- relative viability (BEN; first compound 0.8 µM): 0.281
- relative viability (BEN; first compound 2.53 µM): 0.298
- relative viability (BEN; first compound 8 µM): 0.321
- relative viability (NCI-H441; first compound 0.08 µM): 0.5
- relative viability (NCI-H441; first compound 0.253 µM): 0.813
- relative viability (NCI-H441; first compound 0.8 µM): 0.671
- relative viability (NCI-H441; first compound 2.53 µM): 0.645
- relative viability (NCI-H441; first compound 8 µM): 0.761
- relative viability (NCI-H2087; first compound 0.08 µM): 0.352
- relative viability (NCI-H2087; first compound 0.253 µM): 0.649
- relative viability (NCI-H2087; first compound 0.8 µM): 0.589
- relative viability (NCI-H2087; first compound 2.53 µM): 0.416
- relative viability (NCI-H2087; first compound 8 µM): 0.452
- relative viability (201T; first compound 0.08 µM): 0.876
- relative viability (201T; first compound 0.8 µM): 0.591
- relative viability (201T; first compound 2.53 µM): 0.695
- relative viability (201T; first compound 8 µM): 0.734
- relative viability (NCI-H520; first compound 0.08 µM): 0.297
- relative viability (NCI-H520; first compound 0.253 µM): 0.257
- relative viability (NCI-H520; first compound 0.8 µM): 0.297
- relative viability (NCI-H520; first compound 2.53 µM): 0.216
- relative viability (NCI-H520; first compound 8 µM): 0.296
- relative viability (NCI-H1651; first compound 0.08 µM): 0.625
- relative viability (NCI-H1651; first compound 0.253 µM): 0.767
- relative viability (NCI-H1651; first compound 0.8 µM): 0.711
- relative viability (NCI-H1651; first compound 2.53 µM): 0.6
- relative viability (NCI-H1651; first compound 8 µM): 0.702
- relative viability (NCI-H1915; first compound 0.08 µM): 0.608
- relative viability (NCI-H1915; first compound 0.253 µM): 0.677
- relative viability (NCI-H1915; first compound 0.8 µM): 0.699
- relative viability (NCI-H1915; first compound 2.53 µM): 0.575
- relative viability (NCI-H1915; first compound 8 µM): 0.678
- relative viability (NCI-H1944; first compound 0.08 µM): 0.376
- relative viability (NCI-H1944; first compound 0.253 µM): 0.403
- relative viability (NCI-H1944; first compound 0.8 µM): 0.367
- relative viability (NCI-H1944; first compound 2.53 µM): 0.34
- relative viability (NCI-H1944; first compound 8 µM): 0.38
- relative viability (NCI-H650; first compound 0.08 µM): 0.469
- relative viability (NCI-H650; first compound 0.253 µM): 0.548
- relative viability (NCI-H650; first compound 0.8 µM): 0.508
- relative viability (NCI-H650; first compound 8 µM): 0.562
- relative viability (A-427; first compound 0.08 µM): 0.48
- relative viability (A-427; first compound 0.253 µM): 0.48
- relative viability (A-427; first compound 0.8 µM): 0.573
- relative viability (A-427; first compound 8 µM): 0.475
